Measured values: ChEMBL document CHEMBL3352629, “Hydroxamic acid based histone deacetylase inhibitors with confirmed activity against the malaria parasite” (Bioorg Med Chem Lett, 2015)
pIC50: −log10 of the molar value. Calls of active or inactive are those of the source. No cut-off for these calls is given here. Square brackets hold non-standard residues; d marks the D form. Peptide text beside a SMILES is read from it. * marks the point of attachment. Asu = N[C@@H](CCCCCC(=O)O)C(=O)O; pGlu = O=C1CC[C@@H](C(=O)O)N1; NHPh = c1ccc(N*)cc1; NHOH = ON*

Columns and labels:
Plasmodium falciparum [1] = assay: Antiprotozoan activity against Plasmodium falciparum infected in mouse assessed as reduction in parasite growth at 50 mg/kg, ip QD for 4 days; assay type: functional; conditions: 96 h, route intraperitoneal
Plasmodium falciparum [2] = assay: Antiprotozoan activity against Plasmodium falciparum NF54 IEF forms; assay type: functional, organism-based
L6 = assay: Cytotoxicity against rat L6 cells; assay type: ADME, cell-based
[3] = system: Trypanosoma brucei rhodesiense; assay: Antiprotozoan activity against Trypanosoma brucei rhodesiense STIB 900 trypomastigotes; assay type: functional, organism-based
Trypanosoma cruzi = assay: Antiprotozoan activity against Trypanosoma cruzi Tulahuen C4 amastigotes; assay type: functional, organism-based
Giardia intestinalis = assay: Antiprotozoan activity against Giardia lamblia G1; assay type: functional, organism-based; conditions: Giardia duodenalis
Histone deacetylase 11 = target: T1, Histone deacetylase 11 (Homo sapiens, UniProt Q96DB2); assay: Inhibition of human HDAC11 using RHKK(Ac) as substrate by fluorimetric analysis
T1 sequence (Q96DB2 whole entry): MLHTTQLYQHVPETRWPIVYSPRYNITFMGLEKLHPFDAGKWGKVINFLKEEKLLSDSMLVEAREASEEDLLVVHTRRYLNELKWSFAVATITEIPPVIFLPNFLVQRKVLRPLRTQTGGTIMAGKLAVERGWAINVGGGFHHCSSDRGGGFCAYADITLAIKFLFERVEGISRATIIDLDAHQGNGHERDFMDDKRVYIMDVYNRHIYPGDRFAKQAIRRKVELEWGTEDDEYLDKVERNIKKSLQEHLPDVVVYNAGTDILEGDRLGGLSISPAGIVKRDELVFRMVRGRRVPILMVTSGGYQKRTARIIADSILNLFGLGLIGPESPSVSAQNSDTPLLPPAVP

Histone deacetylase 1 = Histone deacetylase 1 (Homo sapiens, UniProt Q13547); assay: Inhibition of human HDAC1 using RHKK(Ac) as substrate by fluorimetric analysis
[4] = target: T2, Polyamine deacetylase HDAC10 (Homo sapiens, UniProt Q969S8); assay: Inhibition of human HDAC10 using RHKK(Ac) as substrate by fluorimetric analysis
T2 sequence (Q969S8 whole entry): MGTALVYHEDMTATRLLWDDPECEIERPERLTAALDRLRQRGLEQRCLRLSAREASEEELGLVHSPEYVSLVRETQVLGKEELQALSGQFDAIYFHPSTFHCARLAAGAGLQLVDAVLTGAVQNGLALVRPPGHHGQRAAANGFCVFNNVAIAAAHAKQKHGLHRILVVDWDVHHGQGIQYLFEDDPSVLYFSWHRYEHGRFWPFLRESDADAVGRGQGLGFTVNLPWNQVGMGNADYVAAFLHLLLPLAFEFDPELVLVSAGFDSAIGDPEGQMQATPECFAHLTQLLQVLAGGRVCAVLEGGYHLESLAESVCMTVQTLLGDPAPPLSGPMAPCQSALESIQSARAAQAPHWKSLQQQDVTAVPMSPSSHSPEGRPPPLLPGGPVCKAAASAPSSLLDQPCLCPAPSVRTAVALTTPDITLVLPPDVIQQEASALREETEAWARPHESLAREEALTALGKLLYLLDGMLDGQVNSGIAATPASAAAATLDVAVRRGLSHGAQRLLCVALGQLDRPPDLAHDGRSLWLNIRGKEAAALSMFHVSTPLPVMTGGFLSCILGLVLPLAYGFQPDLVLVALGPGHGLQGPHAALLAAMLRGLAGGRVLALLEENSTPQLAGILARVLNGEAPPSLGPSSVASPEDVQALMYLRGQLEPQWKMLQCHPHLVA

Histone deacetylase 8 = target: T3, Histone deacetylase 8 (Homo sapiens, UniProt Q9BY41); assay: Inhibition of human HDAC8 using RHK(Ac)K(Ac) as substrate by fluorimetric analysis
T3 sequence (Q9BY41 whole entry): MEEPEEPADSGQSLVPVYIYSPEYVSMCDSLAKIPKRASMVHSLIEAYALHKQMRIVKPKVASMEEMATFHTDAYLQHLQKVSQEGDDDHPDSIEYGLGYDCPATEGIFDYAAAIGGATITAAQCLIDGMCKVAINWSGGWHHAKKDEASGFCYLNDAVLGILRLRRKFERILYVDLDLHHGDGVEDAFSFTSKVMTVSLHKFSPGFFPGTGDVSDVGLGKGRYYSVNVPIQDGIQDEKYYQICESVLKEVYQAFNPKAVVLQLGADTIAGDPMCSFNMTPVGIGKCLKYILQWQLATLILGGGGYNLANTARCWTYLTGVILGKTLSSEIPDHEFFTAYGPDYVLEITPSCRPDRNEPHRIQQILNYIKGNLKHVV

[5] = target: T4, Protein deacetylase HDAC6 (Homo sapiens, UniProt Q9UBN7); assay: Inhibition of human HDAC6 using RHKK(Ac) as substrate by fluorimetric analysis
T4 sequence (Q9UBN7 whole entry): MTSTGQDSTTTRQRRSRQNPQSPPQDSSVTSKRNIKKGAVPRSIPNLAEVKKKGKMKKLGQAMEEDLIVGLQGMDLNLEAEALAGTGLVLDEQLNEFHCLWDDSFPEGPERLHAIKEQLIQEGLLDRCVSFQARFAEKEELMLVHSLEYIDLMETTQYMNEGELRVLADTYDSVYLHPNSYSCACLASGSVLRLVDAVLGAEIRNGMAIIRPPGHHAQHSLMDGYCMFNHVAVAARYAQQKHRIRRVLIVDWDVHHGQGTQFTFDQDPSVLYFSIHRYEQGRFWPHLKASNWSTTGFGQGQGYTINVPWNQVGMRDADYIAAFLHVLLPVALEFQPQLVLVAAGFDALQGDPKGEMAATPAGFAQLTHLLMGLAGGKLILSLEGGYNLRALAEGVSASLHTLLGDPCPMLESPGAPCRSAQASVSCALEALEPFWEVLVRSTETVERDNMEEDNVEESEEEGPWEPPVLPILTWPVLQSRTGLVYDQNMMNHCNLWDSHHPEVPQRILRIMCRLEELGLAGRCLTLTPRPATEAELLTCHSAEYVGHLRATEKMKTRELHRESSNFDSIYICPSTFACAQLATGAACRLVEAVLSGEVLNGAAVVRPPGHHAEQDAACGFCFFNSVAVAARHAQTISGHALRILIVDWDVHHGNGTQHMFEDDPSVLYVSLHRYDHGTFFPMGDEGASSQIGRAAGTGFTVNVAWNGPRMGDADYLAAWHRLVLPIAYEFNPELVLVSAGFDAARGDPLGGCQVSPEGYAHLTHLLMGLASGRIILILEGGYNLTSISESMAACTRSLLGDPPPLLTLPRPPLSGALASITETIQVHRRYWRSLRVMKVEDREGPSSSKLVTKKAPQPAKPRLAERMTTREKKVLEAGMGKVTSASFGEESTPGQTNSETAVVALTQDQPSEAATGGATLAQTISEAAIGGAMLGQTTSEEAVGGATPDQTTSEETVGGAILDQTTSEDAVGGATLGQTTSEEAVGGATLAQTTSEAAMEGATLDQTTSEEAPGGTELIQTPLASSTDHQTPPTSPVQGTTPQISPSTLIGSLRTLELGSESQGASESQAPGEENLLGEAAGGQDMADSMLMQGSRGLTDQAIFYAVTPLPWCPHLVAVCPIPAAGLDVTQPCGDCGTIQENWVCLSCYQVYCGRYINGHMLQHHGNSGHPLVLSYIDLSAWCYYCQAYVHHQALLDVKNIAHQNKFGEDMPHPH

Histone deacetylase 3 = Histone deacetylase 3 (Homo sapiens, UniProt O15379); assay: Inhibition of human HDAC3 using RHKK(Ac) as substrate by fluorimetric analysis
NCI-H460 = assay: Cytotoxicity against human NCI-H460 cells; assay type: functional, cell-based
Histone deacetylase 2 = Histone deacetylase 2 (Homo sapiens, UniProt Q92769); assay: Inhibition of human HDAC2 using RHKK(Ac) as substrate by fluorimetric analysis
Plasmodium falciparum [6] = assay: Antiprotozoan activity against Plasmodium falciparum infected in mouse assessed as mouse survival at 50 mg/kg, ip QD for 4 days; assay type: functional; conditions: route intraperitoneal
Leishmania donovani [7] = assay: Antiprotozoan activity against Leishmania donovani MHOM- ET-67/L82 amastigotes; assay type: functional, organism-based; conditions: for pIC50: Leishmania donovani, MHOM- ET-67/L82, read-out: IC50
Leishmania donovani [8] = assay: Antiprotozoan activity against Leishmania donovani MHOM- ET-67/L82 amastigotes at 1 uM; assay type: functional, organism-based

Sequence of Histone deacetylase 1 (Q13547 whole entry): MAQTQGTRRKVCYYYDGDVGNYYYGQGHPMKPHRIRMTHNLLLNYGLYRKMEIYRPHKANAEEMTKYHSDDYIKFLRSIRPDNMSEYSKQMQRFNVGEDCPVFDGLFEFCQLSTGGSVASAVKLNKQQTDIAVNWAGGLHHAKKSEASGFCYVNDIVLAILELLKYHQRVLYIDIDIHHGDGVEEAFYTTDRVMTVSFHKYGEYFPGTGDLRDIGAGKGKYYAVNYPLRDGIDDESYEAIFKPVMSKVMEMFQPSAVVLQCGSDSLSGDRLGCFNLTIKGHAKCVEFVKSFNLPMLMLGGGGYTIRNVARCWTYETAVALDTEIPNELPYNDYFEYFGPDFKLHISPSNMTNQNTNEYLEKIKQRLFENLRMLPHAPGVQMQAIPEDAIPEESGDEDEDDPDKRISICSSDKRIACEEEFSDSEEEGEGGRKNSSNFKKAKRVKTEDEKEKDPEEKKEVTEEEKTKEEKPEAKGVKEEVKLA
Sequence of Histone deacetylase 2 (Q92769 whole entry): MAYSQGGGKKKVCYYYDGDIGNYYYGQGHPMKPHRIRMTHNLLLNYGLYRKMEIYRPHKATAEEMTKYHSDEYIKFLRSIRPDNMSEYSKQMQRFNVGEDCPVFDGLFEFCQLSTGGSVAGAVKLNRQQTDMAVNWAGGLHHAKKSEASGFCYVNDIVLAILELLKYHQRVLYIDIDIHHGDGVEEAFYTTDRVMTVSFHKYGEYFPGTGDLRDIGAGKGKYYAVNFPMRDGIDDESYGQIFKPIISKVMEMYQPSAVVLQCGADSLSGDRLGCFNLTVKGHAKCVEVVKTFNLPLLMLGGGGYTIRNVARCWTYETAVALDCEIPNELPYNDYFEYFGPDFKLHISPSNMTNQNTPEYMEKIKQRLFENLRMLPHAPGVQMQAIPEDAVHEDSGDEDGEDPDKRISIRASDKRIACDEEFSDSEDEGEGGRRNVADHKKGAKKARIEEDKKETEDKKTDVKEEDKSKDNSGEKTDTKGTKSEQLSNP
Sequence of Histone deacetylase 3 (O15379 whole entry): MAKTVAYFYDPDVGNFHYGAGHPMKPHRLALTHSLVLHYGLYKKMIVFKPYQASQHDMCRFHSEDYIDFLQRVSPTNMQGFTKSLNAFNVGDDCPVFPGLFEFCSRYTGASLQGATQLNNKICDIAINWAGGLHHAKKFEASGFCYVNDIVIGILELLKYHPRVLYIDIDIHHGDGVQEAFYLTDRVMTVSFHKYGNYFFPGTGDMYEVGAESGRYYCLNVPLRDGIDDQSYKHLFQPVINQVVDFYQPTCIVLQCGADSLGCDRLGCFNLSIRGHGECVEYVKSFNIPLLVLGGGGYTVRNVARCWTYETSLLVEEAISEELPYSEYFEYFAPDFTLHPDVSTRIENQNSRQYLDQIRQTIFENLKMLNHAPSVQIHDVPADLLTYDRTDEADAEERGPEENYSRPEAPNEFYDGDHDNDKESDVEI

Compound | pIC50 (Plasmodium falciparum [2]) | pIC50 [3] | pIC50 (Trypanosoma cruzi) | pIC50 (Giardia intestinalis) | inhibition in vivo at 50 mg/kg (Plasmodium falciparum [1]) [%] | pIC50 (L6) | also measured
O=C(CCCCC[C@H](NC(=O)[C@H]1CCC(=O)N1)C(=O)Nc1cccc(C(F)(F)F)c1)NO | 8.52 | 5.38 | 6.01 | 5.37 | 63.2 | 6.20 | 
O=C(CCCCC[C@H](NC(=O)[C@@H]1CC(=O)N1)C(=O)Nc1ccccc1)NO | 7.64 | 5.22 | 4.48 | 4.89 |  | 5.13 | pIC50 (Histone deacetylase 11): 7.43; pIC50 (Histone deacetylase 1): 7.23; pIC50 [4]: 6.90; pIC50 (Histone deacetylase 8): 6.86; pIC50 [5]: 8.22; pIC50 (Histone deacetylase 3): 7.06; pIC50 (NCI-H460): 5.27; pIC50 (Histone deacetylase 2): 6.84
C[C@@H]1CC[C@H]2[C@@H](C)C(=O)O[C@@H]3O[C@@]4(C)CC[C@@H]1[C@]32OO4 [ARTEMISININ] |  |  |  |  | 99.9 |  | Survival (Plasmodium falciparum [6]): >30 days
CCCCCCCCCCCCCCCCOP(=O)([O-])OCC[N+](C)(C)C [MILTEFOSINE] |  |  |  |  |  |  | pIC50 (Leishmania donovani [7]): 5.50
C[C@H]1[C@@H](O)O[C@@H]2O[C@@]3(C)CC[C@H]4[C@H](C)CC[C@@H]1[C@@]24OO3 [ARTENIMOL] |  |  |  |  | 99.8 |  | 
Cc1ncc([N+](=O)[O-])n1CCO [METRONIDAZOLE] |  |  |  | 6.24 |  |  | 
O=C1CC[C@H](C(=O)N[C@@H](CCCCCS)C(=O)Nc2ccccc2)N1 | 5.02 | 5.49 | 4.59 | 4.91 |  | 5.28 | pIC50 (Histone deacetylase 11): 7.85; pIC50 (Histone deacetylase 1): 7.89; pIC50 [4]: 7.96; pIC50 (Leishmania donovani [7]): < 5.00; pIC50 (Histone deacetylase 8): 6.55; pIC50 [5]: 8.52; pIC50 (Histone deacetylase 3): 8.30; pIC50 (Histone deacetylase 2): 7.11
COc1cc([C@@H]2c3cc4c(cc3[C@H](O)[C@H]3COC(=O)[C@H]23)OCO4)cc(OC)c1OC [PODOFILOX] |  |  |  |  |  | 7.72 | 
O=C(Cn1ccnc1[N+](=O)[O-])NCc1ccccc1 [BENZNIDAZOLE] |  |  | 5.67 |  |  |  | 
CC(=O)SCCCCC[C@H](NC(=O)[C@H]1CCC(=O)N1)C(=O)Nc1ccccc1 | 5.18 | 5.60 | 5.68 | 5.09 |  | 6.72 | IC50 (Leishmania donovani [7]): Not Active; pIC50 (NCI-H460): 7.18; Activity (Leishmania donovani [8]): inactive

The next lines start with results.

pIC50 (Plasmodium falciparum [2]) | pIC50 [3] | pIC50 (Trypanosoma cruzi) | pIC50 (Giardia intestinalis) | Compound | inhibition in vivo at 50 mg/kg (Plasmodium falciparum [1]) [%] | pIC50 (L6) | also measured
5.49 | 5.62 | 5.40 | 4.39 | CC(=O)SCCCCC[C@H](NC(=O)[C@H]1CCC(=O)N1)C(=O)Nc1cccc(C(F)(F)F)c1 |  | 7.04 | IC50 (Leishmania donovani [7]): Not Active; Activity (Leishmania donovani [8]): inactive
5.49 | 5.32 | 4.72 | 4.19 | O=C1CC[C@H](C(=O)N[C@@H](CCCCCS)C(=O)Nc2cccc(C(F)(F)F)c2)N1 |  | 5.57 | pIC50 (Leishmania donovani [7]): < 5.52
7.72 | 4.70 | 4.32 | 4.97 | O=C(CCCCC[C@H](NC(=O)[C@@H]1CCC(=O)N1)C(=O)Nc1ccccc1)NO ([pGlu]-[Asu](NHOH)-NHPh) | 87.5 | 4.12 | pIC50 (Histone deacetylase 11): 7.89; pIC50 (Histone deacetylase 1): 7.47; pIC50 [4]: 6.95; pIC50 (Histone deacetylase 8): 7.03; pIC50 [5]: 8.52; pIC50 (Histone deacetylase 3): 7.21; pIC50 (NCI-H460): 5.66; pIC50 (Histone deacetylase 2): 7.05
7.60 |  | 5.00 |  | O=C(CCCCCCC(=O)Nc1ccccc1)NO [VORINOSTAT] |  |  | Activity (Leishmania donovani [8]): inactive
8.22 | 5.26 | 6.07 | 5.33 | Cc1cccc(NC(=O)[C@H](CCCCCC(=O)NO)NC(=O)[C@H]2CCC(=O)N2)c1 | 33.8 | 5.91 | pIC50 (Histone deacetylase 11): 7.82
